Laboratory results as given in article PMC12271471, “Direct synthesis of mycophenolic acid aryl esters with antioxidant and antiproliferative properties” (Scientific Reports, 2025).

Legend:
PBMCs = assay: VPD450 proliferation test (flow cytometry) on PBMCs; type: cell-based, human; settings: for EC50: Homo sapiens, PBMC, PBMCs stimulated with anti-CD3/anti-CD28 beads, 72 h, mean ± SD; for SI selectivity index PBMCs (IC50/EC50): ratio between IC50 (XTT) and EC50 (VPD450) on PBMCs
Procedure: These values indicate the concentration of any compound at which proliferation of PBMCs (healthy cells), and T-Jurkat cells (T-cell leukemia), is inhibited by 50% compared to the control. Cells were treated with the compounds for 72 h (PBMCs) or 48 h (T-Jurkat), followed by a […] VPD450 test. The results are presented in ESI Fig. S3 as proliferation curves concerning concentration.
ESI Figure 3. Concentration-dependent change in proliferation under the treatment of ester derivatives of MPA. (A) VPD450-labelled PBMCs were cultured in the presence of different concentrations (100; 50; 25; 10; 1; 0.1, and 0.01 μM) of MPA, MMF, and ester derivatives, and stimulated with magnetic beads coated with anti-CD3 and anti-CD28 antibodies for 72 hours. (B) VPD450-labelled T-Jurkat cells were cultured in the presence of different concentrations (100; 10; 1; 0.1 and 0.01 μM) of MPA and ester derivatives for 48 hours. The plots were separated based on the type of ester derivative (P or MP). Cell proliferation was analyzed using flow cytometry. The results are expressed […]
(§1) (1 picture or pasted object on this page, not shown here) […]
(§2) inhibited cell viability by more than 50%. Each experiment was conducted in triplicate, and the final […]
(§3) VPD450 dye-based in vitro cell proliferation test
PBMCs and T-Jurkat cells were washed twice with warm PBS (37°C), re-suspended in fresh PBS at a final concentration of 10-30∙10^6 cells/ml, and labelled with 1 µl of VPD450 (BD Biosciences) at 37°C for 15 minutes, with vortexing every 5 minutes to ensure uniform staining. Subsequently, cells were washed with PBS, then with the complete medium (X-VIVO20 for PBMCs and RPMI-1640 for T-Jurkat cells), next re-suspended in fresh complete medium and seeded into 96-well plates at a concentration of 1∙10^6 cells per well. PBMCs were additionally stimulated with magnetic beads coated with anti-CD3 and anti-CD28 antibodies (Invitrogen) at a 2:1 cell-to-bead ratio. To the experimental wells, 100 µl of the MPA derivatives were added to achieve final concentrations of 50, 25, 10, 5, 1, 0.1, and 0.01 µM. In parallel, control wells containing stained but unstimulated cells and stained, stimulated cells were prepared at the same concentration. Cell proliferation was analyzed using an LSRFortessa flow cytometer (BD Biosciences) and Kaluza C Flow Cytometry Analysis Software (Beckman Coulter). […]
(§4) Statistical analysis was conducted using GraphPad Prism 9 (GraphPad Software Inc).
(§5) Differences between MMF, MPA and its new derivatives were assessed using a two-tailed unpaired Student’s t-test, with statistical significance defined as p < 0.05. EC50 and IC50 values were determined by fitting data to a four-parameter non-linear regression model in GraphPad Prism 9. Statistical significance was evaluated using the t-test.

[1] = system: IMPDH (PBMC proliferation); assay: GMP test: PBMC proliferation with or without guanosine source (IMPDH inhibition); type: cell-based, human; settings: for PBMC proliferation upon GMP addition (reversal of inhibition): with 50 µM GMP
Procedure: ESI Figure 4. Antiproliferative activity of MPA, MMF, and various esters of MPA in the presence of guanosine source — role of IMPDH inhibiton. VPD450-labeled human PBMCs, in the presence of different concentrations (50; 25; 10; 1, and 0.1 μM) of MPA, MMF, and esters, and stimulated (magnetic beads coated with anti-CD3 and anti-CD28 antibodies) were cultured with or without the addition of 50 μM GMP for 72 h. Cell proliferation was analyzed […]
as §1, §2, §3
PBMCs and T-Jurkat cells were washed twice with warm PBS (37°C), re-suspended in fresh PBS at a final concentration of 10-30∙10^6 cells/ml, and labelled with 1 µl of VPD450 (BD Biosciences) at 37°C for 15 minutes, with vortexing every 5 minutes to ensure uniform staining. Subsequently, cells were washed with PBS, then with the complete medium (X-VIVO20 for PBMCs and RPMI-1640 for T-Jurkat cells), next re-suspended in fresh complete medium and seeded into 96-well plates at a concentration of 1∙10^6 cells per well. PBMCs were additionally stimulated with magnetic beads coated with anti-CD3 and anti-CD28 antibodies (Invitrogen) at a 2:1 cell-to-bead ratio. To the experimental wells, 100 µl of the MPA derivatives were added to achieve final concentrations of 50, 25, 10, 5, 1, 0.1, and 0.01 µM. In parallel, control wells containing stained but unstimulated cells and stained, stimulated cells were prepared at the same concentration. Cell proliferation was analyzed using an LSRFortessa flow cytometer (BD Biosciences) and Kaluza C Flow Cytometry Analysis Software (Beckman Coulter).
The data were expressed as EC50 values for compounds that inhibited more than 50% of cell […]
Enzyme inhibition in the presence of guanosine source (GMP test)
PBMCs were suspended in a 15 mL centrifuge tube at a concentration of 10-30 × 10⁶ cells in 1 mL of PBS, then, 2 μL of 1 mM VPD 450 dye solution was added, incubated for 15 min at 37°C, washed with a 9-fold volume of warm PBS and centrifuged at 400 x g for 5 min. Then, the cells were suspended in 10 mL of X-VIVO medium with 10% FBS and centrifuged again at 400 x g for 5 min. After suspending the cells in the complete medium, the staining level was checked using flow cytometry. The cells thus obtained were stimulated with anti-CD3/anti-CD28 antibodies as described previously (see VPD450 dye-based in vitro cell proliferation test). To perform the GMP test, a proper amount of GMP was added to each well to reach its final concentration of 50 μM, and then incubated for 72 hours. Proliferative activity was tested in the presence of various concentrations of compounds (50; 25; 10; 1 and 0.1 μM; MPA and selected amide derivatives) or without their addition. Cell proliferation was assessed using […]
as §4, §5

Structure (SMILES)	EC50 (PBMCs) [nM]	SI selectivity index PBMCs (IC50/EC50) (PBMCs)	PBMC proliferation upon GMP addition (reversal of inhibition) ([1]; 50 µM compound, 72 h)	Inhibition of PBMC proliferation ([1]; 50 µM compound, without GMP, 72 h)	inhibition at 50 µM ([1]; Homo sapiens, PBMC, 50 µM compound, without GMP, 72 h) [%]	Inhibition of PBMC proliferation ([1]; 50 µM)
COC(=O)/C=C/c1ccc(OC(=O)CC/C(C)=C/Cc2c(O)c3c(c(C)c2OC)COC3=O)c(OC)c1 [MP7]	7734 ± 7	3.935				
C=CCc1ccc(OC(=O)CC/C(C)=C/Cc2c(O)c3c(c(C)c2OC)COC3=O)c(OC)c1 [MP8]	1154 ± 3	15.409				
COc1c(C)c2c(c(O)c1C/C=C(\C)CCC(=O)Oc1cc(C)ccc1C(C)C)C(=O)OC2 [P2]	1417 ± 3	11.538				
COc1cc(C=O)ccc1OC(=O)CC/C(C)=C/Cc1c(O)c2c(c(C)c1OC)COC2=O [MP4]	2900 ± 5	8.098				
COc1ccccc1OC(=O)CC/C(C)=C/Cc1c(O)c2c(c(C)c1OC)COC2=O [MP1]	1106 ± 4	13.365				
COc1c(C)c2c(c(O)c1C/C=C(\C)CCC(=O)Oc1ccc(C=O)cc1)C(=O)OC2 [P5]	1656 ± 3	6.007				
COC(=O)/C=C/c1ccccc1OC(=O)CC/C(C)=C/Cc1c(O)c2c(c(C)c1OC)COC2=O [P4]	4865 ± 4	5.321	comparable pattern			
COc1cc(C=O)cc(OC)c1OC(=O)CC/C(C)=C/Cc1c(O)c2c(c(C)c1OC)COC2=O [MP3]	13742 ± 5	0.770				
COc1c(C)c2c(c(O)c1C/C=C(\C)CCC(=O)Oc1ccc(CCC(C)=O)cc1)C(=O)OC2 [P7]	1047 ± 6	48.036	comparable pattern			
COc1c(C)c2c(c(O)c1C/C=C(\C)CCC(=O)OCCN1CCOCC1)C(=O)OC2 [MMF, mycophenolate mofetil, reference compound]	1037 ± 6	16.020		near-complete inhibition		
COc1c(C)c2c(c(O)c1C/C=C(\C)CCC(=O)Oc1ccc3c(c1)OCO3)C(=O)OC2 [P1]	1152 ± 4	108.919	reversed		~80	
C/C=C/c1ccc(OC(=O)CC/C(C)=C/Cc2c(O)c3c(c(C)c2OC)COC3=O)c(OC)c1 [MP9]	2356 ± 3	8.978	comparable pattern			
COc1cccc(OC)c1OC(=O)CC/C(C)=C/Cc1c(O)c2c(c(C)c1OC)COC2=O [MP2]	5395 ± 6	4.174				
COc1c(C)c2c(c(O)c1C/C=C(\C)CCC(=O)O)C(=O)OC2 [MPA, Mycophenolic acid]	1154 ± 6	16.232				near-complete inhibition
